# Measured values taken from US8507464B2, “Phosphoramidate alkylator prodrugs” (Threshold Pharmaceuticals, Inc., priority 2005, dated 2013).
# Like-named read-outs stand apart in the source and are kept apart here.
# Experiments:
# [1] = test system: rat (RLM) liver microsomal proteins; assay: Metabolic stability in liver microsomal protein; format: in vitro ADME; settings: 5 μM
# [2] = test system: human (HLM) liver microsomal proteins; assay: Metabolic stability in liver microsomal protein; format: in vitro ADME; settings: Table 2A, second study, 5 μM
# [3] = test system: mouse (MLM) liver microsomal proteins; format: in vitro ADME
# [4] = Pharmacokinetics after intravenous or intraperitoneal administration in mice (Table 2B); settings: plasma, 50 mg/kg
# HT29 [5] = assay: Clonogenic assay, hypoxia vs normoxia (Table 1B); settings: for IC90: Homo sapiens
# H460 cell line = assay: Anti-proliferation assay, hypoxia vs normoxia (Table 1A); settings: for IC50: Homo sapiens; for HCR P: ratio of IC50 in normoxia and hypoxia
# HT29 [6] = assay: Anti-proliferation assay, hypoxia vs normoxia (Table 1B); settings: for IC50: Homo sapiens
# [7] = Plasma stability (Table 2B); settings: 30 min
# in vivo [8] = settings: Balb/c, mouse, 50 mg/kg
# [9] = format: physicochemical; settings: glassy carbon, Ag/AgCl reference
# DX-5 = assay: Anti-proliferation assay, hypoxia vs normoxia (Table 1B)
# human H460 cells = assay: Clonogenic survival assay, hypoxia vs normoxia (Table 1A); settings: for IC90: Homo sapiens
# NCI-H460 cells [10] = assay: Antiproliferation assay - oxygen dependence; format: cell-based, human
# Description: . […] The calculated IC50 values (μM) are tabulated in Table Y1 (H460 cells) or Table Y2 (HT29 cells) below.
# MES-SA/Dx5 cells = assay: Antiproliferation assay (Alamar Blue), anoxia vs air; settings: Homo sapiens, MES-SA/Dx5, 2 h
# HT29 cells = assay: as above; settings: Homo sapiens, HT-29, 2 h
# [11] = test system: H460 cells exposed as monolayers; assay: Clonogenic survival of monolayer cells (Example 35)
# NCI-H460 cells [12] = assay: Antiproliferation assay (Alamar Blue), anoxia vs air
# [13] = test system: H460 lung carcinoma spheroids; assay: Spheroid model, clonogenic survival; settings: read-out: IC90 H460 Spheroid 10% O2
# in vivo [14] = assay: in vivo
# spheroids = assay: Spheroid combination with cisplatin or daunorubicin, clonogenic survival; format: cell-based, human; settings: 2 h exposure
# Protocol: The phosphoramidate alkylator prodrug was combined simultaneously with cisplatin or daunorubicin and the spreroids exposed for 2 h to the combination, followed by measurement of clonogenic survival.
# HT29 xenograft = assay: HT-29 xenograft mouse model with CDDP (Example 52); format: in vivo; settings: Group 2; tumor volumes at day 25; vs vehicle group; CDDP in saline IV alone
# Protocol: Female CB17/SCID mice (purchased from Charles River, Cambridge, Mass.), 7-8 weeks of age, were allowed to acclimatize for at least three days, and handled under pathogen-free conditions. Human colon carcinoma cell line HT29 was obtained from the American Type Culture Collection. The cell lines were cultured and harvested as described in Example 47 and inoculated at 3×10^6 cells/animal in the peritoneal subcutaneous space. When the tumors grew to an average volume of 100 mm^3 (day 8), each group of mice (ten per group) was administered, for three weeks, as tabulated in the table below: Compound 25 in saline, administration route—i.p., administrated 2 h before CDDP on the days the combination therapy is scheduled and CDDP (in saline, IV).
# The body weight and tumor volume were determined as described in Example 47. Data are based on tumor volumes at day 25 when tumors in the vehicle group had reached sufficient size to require that the mice be sacrificed.
# [15] = Solubility in saline at room temperature; format: physicochemical; settings: saline or isotonic
# [16] = 25 mg/kg i.p., 10% PEG, CD-1 mice
# NCI H460 xenograft [17] = assay: NCI H460 non small cell lung carcinoma xenograft mouse model (Example 48); format: in vivo; settings: Group 6: Taxol (q2d × 3)/week × 2 weeks; day 29; vs vehicle
# Protocol: Female CB17/SCID mice (purchased from Charles River, Cambridge, Mass.), 7-8 weeks of age, were allowed to acclimatize for at least three days, and handled under pathogen-free conditions. Human […] cell line NCI H460 was obtained from the American Type Culture Collection. The cell lines were cultured and harvested according to the procedure described in Example 47 and inoculated at 1×10^6 cells/animal in the peritoneal subcutaneous space. When the tumors grew to an average volume of 100 mm^3 (day 8), […], as tabulated in the table below: Compound 25 (2.5 mg/ml in 10% PEG; administration route—i.p.) and Taxol (1 mg/ml in 5% EtOH, 5% Cremophor and 90% saline; administration—i.v. 2 h after administration of Compound 25). The body weight and tumor volumes were measured as described in Example 47 above.
# Results are presented in Table X2 based on tumor volume measurement on day 29 when vehicle treated mice had reached a volume of 946 mm^3. Groups of 5 mice receiving saline or no treatment were added in order to indicate any vehicle effects but are not used for comparisons in this analysis.
# NCI H460 xenograft [18] = format: in vivo, mouse; settings: Group 2: Taxol 10 mg/kg (q2d × 3)/week × 2 week; day 27; vs vehicle
# Description: Comparisons were made on day 27 because that was the last day of measurements for the vehicle group and those animals were sacrificed.
# [19] = CD-1, Balb/c for Compound 1, mouse, iv
# [20] = NCI-H460, read-out: Hypoxia P (proliferation IC50)
# [21] = NCI-H460, read-out: Normoxia P (proliferation IC50)
# [22] = HT-29, read-out: HT29 P H (proliferation IC50, hypoxia)
# [23] = HT-29, read-out: HT29 P N (proliferation IC50, normoxic)
# [24] = read-out: DX-5 P H (proliferation IC50, hypoxia)
# [25] = read-out: DX-5 P N (proliferation IC50, normoxic)
# [26] = Homo sapiens, NCI-H460, read-out: IC50 in H460 cells, 0.6% O2
# [27] = Homo sapiens, NCI-H460, read-out: IC50 in H460 cells, 1% O2
# [28] = read-out: IC50 MES-SA/Dx5 Anoxia
# [29] = Homo sapiens, NCI-H460, 2 h, read-out: IC50 H460 Air, air, 2 h exposure
# [30] = Homo sapiens, NCI-H460, 2 h, read-out: IC50 H460 Anoxia, anoxia, 2 h exposure
smiles,measurement,setting,value
"C[C@]12CC[C@H]3[C@@H](CCC4=CC(=O)CC[C@@]43C)[C@@H]1CC[C@@H]2O [Testosterone, reference compound]",Metabolic stability (% at 30 min) RLM,"[1]; Table 1, first study",0%
same,Metabolic stability (% at 30 min) RLM,"[1]; Table 2A, second study",33%
same,Metabolic stability (% at 30 min) HLM,[2],65%
same,Metabolic stability (% at 30 min) MLM,"[3]; Table 1, first study, 5 μM",6%
Cn1c(COP(N)(=O)N(CCCl)CCCl)cnc1[N+](=O)[O-] (stereo not drawn) [Compound 1],Cmax,"[4]; CD-1, Balb/c for Compound 1, mouse, ip",29900 ng/mL
same,AUC,[4]; [19],12500 ng·h/mL
same,Cmax,[4]; [19],35000 ng/mL
same,Vd,[4]; [19],1.48 L/kg
same,half-life,[4]; [19],15.6 min
same,half-life,"[4]; mouse, ip",15 min
same,HT29 HCR C,HT29 [5],>100
same,IC90,"HT29 [5]; HT-29, read-out: HT29 C H (clonogenic IC90, hypoxia)",0.4 µM
same,IC90,"HT29 [5]; HT-29, read-out: HT29 C N (clonogenic IC90, normoxic)",100 µM
same,IC50,H460 cell line; [20],0.4 µM
same,IC50,H460 cell line; [21],72 µM
same,HCR P,H460 cell line,180
same,HT29 HCR P,HT29 [6],>2
same,IC50,HT29 [6]; [22],50 µM
same,IC50,HT29 [6]; [23],100 µM
same,Plasma stability (% at 30 min),[7],100%
same,Cmax,in vivo [8]; ip,29900 ng/mL
same,Tmax,in vivo [8]; ip,15 min
same,AUC,in vivo [8]; iv,12500 ng·h/mL
same,Cmax,in vivo [8]; iv,35000 ng/mL
same,Tmax,in vivo [8]; iv,5 min
same,half-life,in vivo [8]; iv,15.3 min
same,"Reduction Potentials, 100 mV/sec",[9]; scan rate 100 mV/sec,−596 mV
same,"Reduction Potentials, 10,000 mV/sec","[9]; scan rate 10,000 mV/sec",−638 mV
same,DX-5 HCR,DX-5,>100
same,IC50,DX-5; [24],1 µM
same,IC50,DX-5; [25],> 100 µM
same,IC90,"human H460 cells; NCI-H460, read-out: Hypoxia C (clonogenic IC90)",0.35 µM
same,IC90,"human H460 cells; NCI-H460, read-out: Normoxia C (clonogenic IC90)",75 µM
same,HCR C,human H460 cells; ratio of IC90 in normoxia and hypoxia,200
same,IC50,"NCI-H460 cells [10]; Homo sapiens, NCI-H460, read-out: IC50 in H460 cells, 0.3% O2",10 µM
same,IC50,NCI-H460 cells [10]; [26],7 µM
same,IC50,NCI-H460 cells [10]; [27],50 µM
same,IC50,"NCI-H460 cells [10]; Homo sapiens, NCI-H460, read-out: IC50 in H460 cells, Air",100 µM
same,IC50,"NCI-H460 cells [10]; Homo sapiens, NCI-H460, read-out: IC50 in H460 cells, N2",0.3 µM
same,IC50,MES-SA/Dx5 cells; read-out: IC50 MES-SA/Dx5 Air,> 100 µM
same,IC50,MES-SA/Dx5 cells; [28],1 µM
same,IC50,HT29 cells; read-out: IC50 HT29 Air,> 100 µM
same,IC50,HT29 cells; read-out: IC50 HT29 Anoxia,50 µM
same,IC90,"[11]; Homo sapiens, NCI-H460, 2 h, read-out: IC90 H460 Monolayer Air",75 µM
same,IC90,"[11]; Homo sapiens, NCI-H460, 2 h, read-out: IC90 H460 Monolayer N2",0.35 µM
same,IC50,NCI-H460 cells [12]; [29],72 µM
same,IC50,NCI-H460 cells [12]; [30],0.4 µM
same,IC90,"[13]; Homo sapiens, NCI-H460, 2 h",> 100 µM
Cn1c(COP(=O)(N(CCCl)C2CC2)N(CCCl)C2CC2)cnc1[N+](=O)[O-] [Compound 7],IC50,H460 cell line; [20],0.14 µM
same,IC50,H460 cell line; [21],25 µM
same,HCR P,H460 cell line,180
same,HT29 HCR P,HT29 [6],>5
same,IC50,HT29 [6]; [22],7 µM
same,IC50,"HT29 [6]; HT-29, read-out: HT29 P H, value in parentheses",100 µM
same,IC50,HT29 [6]; [23],> 100 µM
same,"HT29 HCR P, value in parentheses",HT29 [6]; parentheses not explained,(1)
same,MTD,in vivo [14],250 mg/kg
same,Plasma stability (% at 30 min),[7],85%
same,DX-5 HCR,DX-5,140
same,IC50,DX-5; [24],0.6 µM
same,IC50,DX-5; [25],83 µM
same,IC50,MES-SA/Dx5 cells; read-out: IC50 MES-SA/Dx5 Air,83 µM
same,IC50,MES-SA/Dx5 cells; [28],0.59 µM
same,IC50,HT29 cells; read-out: IC50 HT29 Air,> 100 µM
same,IC50,HT29 cells; read-out: IC50 HT29 Anoxia,7 µM
same,IC50,NCI-H460 cells [12]; [29],25 µM
same,IC50,NCI-H460 cells [12]; [30],0.14 µM
same,Metabolic stability (MLM) (% at 30 min),[3]; Table 2B,0%
"N.N.[Cl][Pt][Cl] [Cisplatin, cis-Diaminedichloroplatinum (II), reference compound]",IC50,"spheroids; read-out: IC50 (μM), spheroids, cisplatin combination experiment",14 µM
same,% Inhibition vs Group 1,HT29 xenograft,24.2%
same,IC90,"[11]; read-out: IC90 H460 Monolayer 0.6% O2, 2 h exposure, 0.6% O2",7.7 µM
same,IC90,"[11]; read-out: IC90 H460 Monolayer Air, 2 h exposure, Air",7.3 µM
same,IC90,"[11]; read-out: IC90 H460 Monolayer N2, 2 h exposure, N2",4.2 µM
same,IC90,"[13]; 2 h exposure, 10% O2",8 µM
Cn1c([N+](=O)[O-])cnc1COP(=O)(NCCCl)NCCCl [Compound 10],IC50,H460 cell line; [20],100 µM
same,IC50,H460 cell line; [21],> 100 µM
same,HCR P,H460 cell line,>1
same,solubility,[15],10000 µg/mL
same,IC50,"NCI-H460 cells [10]; Homo sapiens, NCI-H460, read-out: IC50 in H460 cells, 0.1% O2",> 100 µM
same,IC50,NCI-H460 cells [10]; [26],> 100 µM
same,IC50,NCI-H460 cells [10]; [27],> 100 µM
same,IC50,"NCI-H460 cells [10]; Homo sapiens, NCI-H460; read-out: IC50 in H460 cells, Air",> 100 µM
same,IC50,"NCI-H460 cells [10]; Homo sapiens, NCI-H460; read-out: IC50 in H460 cells, N2",> 100 µM
same,IC50,NCI-H460 cells [12]; [29],> 100 µM
same,IC50,NCI-H460 cells [12]; [30],≥ 100 µM
Cn1c([N+](=O)[O-])cnc1COP(=O)(N(CCCl)CCCl)N(CCCl)CCCl [Compound 155],solubility,[15],< 1000 µg/mL
"COc1cccc2c1C(=O)c1c(O)c3c(c(O)c1C2=O)C[C@@](O)(C(C)=O)C[C@@H]3O[C@H]1C[C@H](N)[C@H](O)[C@H](C)O1 [Daunorubicin, reference compound]",IC50,"spheroids; Homo sapiens, read-out: IC50 (μM), spheroids, daunorubicin combination experiment",17 µM
same,IC90,"[11]; Homo sapiens, NCI-H460, 2 h, read-out: IC90 H460 Monolayer (oxygen column not identifiable)",0.16 µM
same,IC90,"[13]; Homo sapiens, NCI-H460, 2 h",19 µM
CC(OP(=O)(NCCBr)NCCBr)c1ncc([N+](=O)[O-])n1C (stereo not drawn) [Compound 85],Cmax,[16],3930 ng/mL
same,Tmax,[16],5.00 min
same,half-life,[16],10.0 min
same,IC50,"NCI-H460 cells [12]; read-out: IC50 H460 Anoxia, anoxia, 2 h exposure",0.7 µM
"CC(=O)O[C@H]1C(=O)[C@@]2(C)[C@H]([C@H](OC(=O)c3ccccc3)[C@]3(O)C[C@H](OC(=O)[C@H](O)[C@@H](NC(=O)c4ccccc4)c4ccccc4)C(C)=C1C3(C)C)[C@]1(OC(C)=O)CO[C@@H]1C[C@@H]2O [Taxol, paclitaxel, reference compound]",% Inhibition vs Group 2,NCI H460 xenograft [17],46%
same,% Inhibition vs Group 1,NCI H460 xenograft [18],36.7%
Cn1c([N+](=O)[O-])cnc1COP(=O)(NCCBr)NCCBr [Compound 73],solubility,[15],10000 µg/mL
